From patent publication US5795857A, “Mimetic insect pyrokinin analogs for insect control” (The United States of America as represented by the …, priority 1996, dated 1998)

System: virgin females of Heliothis virescens
Test: Pheromonotropic assay (topical application)
Assay type: in vivo
Settings: for dose approaching 100% maximal response, topical application: 15 minutes following topical application
Procedure: The amphiphilic carboranyl analog Cbe--Thr--Pro--Arg--Leu--NH2 was dissolved in water and solutions at concentrations of 5, 10, 25, 60, and 200 pmol/μl were prepared. The cuticular scales along the lateral side of the abdomen were removed with a 1 ml plastic pipet tip attached to house vacuum with a rubber hose. A low vacuum was applied to the apparatus and the pipet tip was gently passed over the cuticle until the scales were drawn by suction. After the scales were removed, 1 μl of peptide solution was applied to the surface of the cuticle and smoothed evenly over the prepared surface. […]
Pupae of Heliothis virescens were obtained from a laboratory colony maintained at the Insect Attractants Behavior and Basic Biology Research Laboratory, USDA-ARS, Gainesville, Fla. The pupae were separated by sex and the females were held in 4-1 cages. Cages were inspected daily for newly eclosed adults which were transferred to new cages and provided with cotton wicks soaked with a 5% sucrose solution. The insects were held at 25°[…] C. and 65%±3% relative humidity with a 12:12 (L:D) photoperiod. Virgin females were used for bioassays 2 and 3 days after eclosion during the 7th-8th hour of the photophase when little or no pheromone is present in the gland (Teal et al., 1993, Can. Entomol., 153:355-366). The cuticular scales were removed from the lateral side of the abdomen using a plastic pipet tip attached to house vacuum using a rubber hose. A low vacuum was applied and the pipet tip was passed gently over the cuticle until the scales were drawn off by suction. Insects were returned to the incubator for 24 h after the scales were removed for most experiments. However, insects were not given a recovery period in studies in which peptides were applied in DMSO (see below).
In initial studies we used dimethyl sulfoxide (DMSO) as a carrier to deliver Hez--PBAN or [6--Pha--Ala^0 ]Lom--MT--II for topical applications. […] We also assessed different carrier solvents for their ability to deliver these two peptides. Peptides were dissolved at a concentration of 500 pmol/μl in: DMSO, water, or 80% acetonitrile:20% water. Solutions were applied to the descaled abdomen in 1 μl of solvent as above. The insects were allowed to incubate for 1 h prior to excision and extraction of the pheromone gland. Extracts were analyzed for the amount of pheromone as above.
The use of water as a carrier for [6--Pha--Ala^0 ]Lom--MT--II was also assessed in dose response and temporal activity studies. For dose response studies [6--Pha--Ala^0 ]Lom--MT--II was dissolved in water at concentrations of 5, 10, 25, 50, 75, 100, 250, 500, 750 and 1000 pmol/μl. Insects were incubated for 60 min after application of 1 μl of solution to the descaled abdomen. In temporal activity studies a 100 pmol/μl dose was selected. For these experiments insects were incubated for periods of 15, 30, 60, 120, or 180 min after application of 1 μl of solution to the descaled abdomen. The ability of the parent peptide, Lom--MT--II, to stimulate pheromone production when applied topically in water was assessed by applying doses of 50, 100, 250 and 500 pmol to the abdomen. Control treatments for this experiment included insects treated with only water and females treated by topical application of 100 pmol of [6--Pha--Ala^0 ]Lom--MT--II. After incubation the sex pheromone glands were excised, extracted and analyzed for the amount of pheromone.

ED50 (EC50), pheromone production after topical application (1 μl aqueous solution on lateral abdominal surface, FIG. 4): 25 pmoles/female
Substance: Cbe--Thr--Pro--Arg--Leu--NH2
ED50, pheromone production via topical application (H. virescens, 1 μl aqueous solution): 25 pmol
time after topical application at which pheromone production is elicited (aqueous solution): about 15 minutes
dose approaching 100% maximal response, topical application (aqueous solution, listed as carboranyl analog): 60 pmoles/female
dose approaching 100% maximal response, topical application (aqueous solution, listed as carboranyl peptide): about 60 pmoles/female
Maximal Response via topical application (dose) (relative to 5 pmoles PBAN via injection): 60 pmol
concentration giving maximal pheromone stimulation, topical application (topically applied): 60 picomoles/insect
